In patent publication US10988459B2 (priority 2015, dated 2021):
pKi: −log10 of the molar value.

The molecules below were run against human RIP1 kinase domain (2-375) (Homo sapiens (Human), UniProt Q13546) (assay: biochemical). Conditions: Table 1; apparent Ki (Morrison tight-binding fit); 50 nM RIP1 kinase domain, 50 uM ATP, 2 hours incubation; read-out: RIP1 Ki.
human RIP1 kinase domain (2-375), sequence (Q13546 2-375): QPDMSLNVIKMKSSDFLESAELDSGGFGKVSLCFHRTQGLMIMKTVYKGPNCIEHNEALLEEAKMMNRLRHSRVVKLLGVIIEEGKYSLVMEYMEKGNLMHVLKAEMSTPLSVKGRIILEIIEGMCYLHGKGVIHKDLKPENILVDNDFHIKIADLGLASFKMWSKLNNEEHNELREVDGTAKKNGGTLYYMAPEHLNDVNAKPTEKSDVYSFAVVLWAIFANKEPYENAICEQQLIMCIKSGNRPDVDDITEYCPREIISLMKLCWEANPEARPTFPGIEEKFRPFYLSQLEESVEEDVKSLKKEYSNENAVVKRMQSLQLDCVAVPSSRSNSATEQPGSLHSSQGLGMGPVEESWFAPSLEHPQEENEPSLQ
Assay type: biochemical
Outline: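 50 nM purified kinase domain from baculovirus-infected insect cells, incubated 2 h with compound in 50 mM Hepes pH 7.5, 30 mM MgCl2, 1 mM DTT, 50 uM ATP, 0.002% Brij-35, 0.5% DMSO. ADP formation read by Transcreener FP at 633 nm excitation. Ki^app fitted with the Morrison tight-binding equation.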
CN1C(=O)[C@@H](NC(=O)c2n[nH]c3c2C2CC2CC3)COc2ccccc21 (stereo partly drawn) [Example 59, N-((S)-5-methyl-4-oxo-2,3,4,5-tetrahydrobenzo[b][1,4]oxazepin-3-yl)-3,4,5,5a,6,6a-hexahydrocyclopropa[e]indazole-1-carboxamide] showed a pKi of 5.77. CC1CCc2n[nH]c(C(=O)N[C@H]3CCc4cc(Cl)ccc4NC3=O)c2C1 (stereo partly drawn) [Example 46, N-((S)-7-chloro-2-oxo-2,3,4,5-tetrahydro-1H-benzo[b]azepin-3-yl)-5-methyl-4,5,6,7-tetrahydro-2H-indazole-3-carboxamide] was tested, and the pKi was 6.87.

Same assay, conditions: Table 5; apparent Ki (Morrison tight-binding fit); 50 nM RIP1 kinase domain, 50 uM ATP, 2 hours incubation; read-out: Ki
With COC1CN(CCc2cc3n(n2)CC[C@H](NC(=O)c2ncn(Cc4ccccc4F)n2)C(=O)N3C)C1 [Example 771, 1-[(2-fluorophenyl)methyl]-N-[(6S)-2-[-(3-methoxyazetidin-1-yl)ethyl]-4-methyl-5-oxo-7,8-dihydro-6H-pyrazolo[1,5-a][1,3]diazepin-6-yl]-1,2,4-triazole-3-carboxamide] the pKi was 6.76. Molecule CN1C(=O)[C@@H](NC(=O)c2cc3c(Br)cccc3cn2)CCn2nccc21 (racemic) [Example 700, 5-bromo-N-[rac-(6S)-4-methyl-5-oxo-7,8-dihydro-6H-pyrazolo[1,5-a][1,3]diazepin-6-yl]isoquinoline-3-carboxamide] has a pKi of 6.35. Work on CN1C(=O)[C@@H](NC(=O)c2cc3n(n2)CCC[C@H]3c2ccccc2F)COc2ccccc21 [Example 710, (4S)-4-(2-fluorophenyl)-N-[(3S)-5-methyl-4-oxo-2,3-dihydro-1,5-benzoxazepin-3-yl]-4,5,6,7-tetrahydropyrazolo[1,5-a]pyridine-2-carboxamide] yielded a pKi of 8.05. In the case of CN1C(=O)[C@@H](NC(=O)c2cc3c(-c4ccccc4)cccn3n2)COc2ccccc21 [Example 713, 4-phenyl-N-[(3S)-5-methyl-4-oxo-2,3-dihydro-1,5-benzoxazepin-3-yl]pyrazolo[1,5-a]pyridine-2-carboxamide], the pKi was 8.30. CC(C)[C@H]1CCCc2nc(C(=O)N[C@H]3COc4cc(F)cc(F)c4NC3=O)nn21 (single isomer, unassigned) [Example 717] showed a pKi of 6.68. With CN1C(=O)[C@@H](NC(=O)c2ncn(Cc3ccccc3)n2)CCn2nc(CCN3CC4CC3CO4)cc21 (stereo partly drawn) [Example 761, 1-benzyl-N-[(6S)-4-methyl-2-[2-(2-oxa-5-azabicyclo[2.2.1]heptan-5-yl)ethyl]-5-oxo-7,8-dihydro-6H-pyrazolo[1,5-a][1,3]diazepin-6-yl]-1,2,4-triazole-3-carboxamide] the pKi was 6.80.

Same assay, conditions: human RIP1 kinase domain (2-375), 50 uM ATP, 2 hours incubation, Transcreener ADP assay; read-out: RIP1 Ki
Cc1cnn2c1N(C)C(=O)[C@@H](NC(=O)c1ncn(Cc3ccccc3)n1)CC2 [Example 166, (S)-1-benzyl-N-(3,4-dimethyl-5-oxo-5,6,7,8-tetrahydro-4H-pyrazolo[1,5-a][1,3]diazepin-6-yl)-1H-1,2,4-triazole-3-carboxamide] gave a pKi of 7.70. CN1C(=O)[C@@H](NC(=O)c2cc(Oc3ccccc3)ccn2)CCn2nccc21 [Example 101, (S)—N-(4-methyl-5-oxo-5,6,7,8-tetrahydro-4H-pyrazolo[1,5-a][1,3]diazepin-6-yl)-4-phenoxypicolinamide] was tested, and the pKi was 6.72. CN1C(=O)[C@@H](NC(=O)c2n[nH]c3ccc(C4CC4)nc23)COc2ccccc21 [Example 144, 5-cyclopropyl-N-[(3S)-5-methyl-4-oxo-2,3-dihydro-1,5-benzoxazepin-3-yl]-1H-pyrazolo[4,3-b]pyridine-3-carboxamide] showed a pKi of 6.61. CN1C(=O)[C@@H](NC(=O)c2nnn3ccc(C(F)(F)F)cc23)COc2ccccc21 [Example 191, (S)—N-(5-methyl-4-oxo-2,3,4,5-tetrahydrobenzo[b][1,4]oxazepin-3-yl)-5-(trifluoromethyl)-[1,2,3]triazolo[1,5-a]pyridine-3-carboxamide] showed a pKi of 7.66. CN1C(=O)C(NC(=O)c2ncn(Cc3ccccc3)n2)CCCn2nc(C3CC3)cc21 (centres unmarked) [Example 104, 1-benzyl-N-(2-cyclopropyl-4-methyl-5-oxo-4,5,6,7,8,9-hexahydropyrazolo[1,5-a][1,3]diazocin-6-yl)-1H-1,2,4-triazole-3-carboxamide] gave a pKi of 6.83. With Cc1cc2n(n1)CC[C@H](NC(=O)c1ncn(Cc3ccc(F)cc3)n1)C(=O)N2C [Example 164, (S)-N-(2,4-dimethyl-5-oxo-5,6,7,8-tetrahydro-4H-pyrazolo[1,5-a][1,3]diazepin-6-yl)-1-(4-fluorobenzyl)-1H-1,2,4-triazole-3-carboxamide] the pKi was 7.61.

Same assay, conditions: human RIP1 kinase domain (2-375), Transcreener ADP assay, 50 uM ATP, 2 hours incubation; read-out: RIP1 Ki
With CC(c1ccccc1)n1cnc(C(=O)N[C@H]2CCn3nc(C4CC4)cc3N(C)C2=O)n1 (stereo in doubt) [Example 292, (S)—N-(2-cyclopropyl-4-methyl-5-oxo-5,6,7,8-tetrahydro-4H-pyrazolo[1,5-a][1,3]diazepin-6-yl)-1-(1-phenylethyl)-1H-1,2,4-triazole-3-carboxamide] the pKi was 7.00. In the case of CC[C@@]1(C)OCc2cc(C(=O)NC3CCn4nc(-c5ccccc5)cc4N(C)C3=O)ncc21 (stereo partly drawn) [Example 264, (3R)-3-ethyl-3-methyl-N-(4-methyl-5-oxo-2-phenyl-5,6,7,8-tetrahydro-4H-pyrazolo[1,5-a][1,3]diazepin-6-yl)-1,3-dihydrofuro[3,4-c]pyridine-6-carboxamide], the pKi was 6.63. Work on CN1C(=O)C(NC(=O)c2n[nH]c(Cc3ccccc3)n2)CCn2nc(C3CCOCC3)cc21 (centres unmarked) [Example 235, 5-benzyl-N-(4-methyl-5-oxo-2-(tetrahydro-2H-pyran-4-yl)-5,6,7,8-tetrahydro-4H-pyrazolo[1,5-a][1,3]diazepin-6-yl)-1H-1,2,4-triazole-3-carboxamide] yielded a pKi of 6.65. Molecule CN1C(=O)[C@@H](NC(=O)c2ncn(CC3CC3(F)F)n2)CCn2nc(C3CC3)cc21 (stereo in doubt) [Example 291, (S)—N-(2-cyclopropyl-4-methyl-5-oxo-5,6,7,8-tetrahydro-4H-pyrazolo[1,5-a][1,3]diazepin-6-yl)-1-((2,2-difluorocyclopropyl)methyl)-1H-1,2,4-triazole-3-carboxamide] has a pKi of 6.09. Work on Cc1nn2c(c1C)N(C)C(=O)[C@@H](NC(=O)c1ncn(Cc3ccc(F)cc3F)n1)CC2 [Example 280, (S)-1-(2,4-difluorobenzyl)-N-(2,3,4-trimethyl-5-oxo-5,6,7,8-tetrahydro-4H-pyrazolo[1,5-a][1,3]diazepin-6-yl)-1H-1,2,4-triazole-3-carboxamide] yielded a pKi of 7.29.

Same assay, conditions: read-out: RIP1 Ki
CN1C(=O)[C@@H](NC(=O)c2nnc3ccc(C(F)(F)C(F)(F)F)nn23)COc2ccccc21 [Example 114, (S)—N-(5-methyl-4-oxo-2,3,4,5-tetrahydrobenzo[b][1,4]oxazepin-3-yl)-6-(perfluoroethyl)-[1,2,4]triazolo[4,3-b]pyridazine-3-carboxamide] showed a pKi of 7.17.

Same assay, conditions: tight-binding apparent inhibition constant; human RIP1 kinase domain (2-375) 50 nM, 50 uM ATP, 2 hours; read-out: Ki
Cc1cc2n(n1)CC[C@H](NC(=O)c1nc3n(n1)CC[C@H]3c1ccccc1)C(=O)N2C (racemic) [Example 575, (7S)-7-phenyl-N-[(6S)-2,4-dimethyl-5-oxo-7,8-dihydro-6H-pyrazolo[1,5-a][1,3]diazepin-6-yl]-6,7-dihydro-5H-pyrrolo[1,2-b][1,2,4]triazole-2-carboxamide] was tested, and the pKi was 7.55. Work on O=C(N[C@H]1CCc2cc(F)cc(F)c2NC1=O)c1nc2n(n1)CCO[C@@H]2c1ccccc1 [Example 639, (8R)-8-phenyl-N-[(3S)-7,9-difluoro-2-oxo-1,3,4,5-tetrahydro-1-benzazepin-3-yl]-6,8-dihydro-5H-[1,2,4]triazolo[5,1-c][1,4]oxazine-2-carboxamide] yielded a pKi of 6.38. In the case of Cc1cc2n(n1)CC[C@H](NC(=O)c1nc3n(n1)CCC31CCOCC1)C(=O)N2C [Example 635, N-[(6S)-2,4-dimethyl-5-oxo-7,8-dihydro-6H-pyrazolo[1,5-a][1,3]diazepin-6-yl]spiro[5,6-dihydropyrrolo[1,2-b][1,2,4]triazole-7,4′-tetrahydropyran]-2-carboxamide], the pKi was 5.14. With CN1C(=O)[C@H](NC(=O)c2ncn(Cc3ccc(F)cc3)n2)CCn2nc(C3CC3)cc21 (stereo in doubt) [Example 680, 1-[(4-fluorophenyl)methyl]-N-[rac-(6R)-2-cyclopropyl-4-methyl-5-oxo-7,8-dihydro-6H-pyrazolo[1,5-a][1,3]diazepin-6-yl]-1,2,4-triazole-3-carboxamide] the pKi was 5.04. CN1C(=O)[C@@H](NC(=O)c2ncc3c(n2)C2(CCCOC2)OC3)COc2ccccc21 (stereo partly drawn) [Example 511, N-[(3S)-5-methyl-4-oxo-2,3-dihydro-1,5-benzoxazepin-3-yl]spiro[5H-furo[3,4-d]pyrimidine-7,3′-tetrahydropyran]-2-carboxamide] showed a pKi of 7.08. Molecule CN1C(=O)[C@@H](NC(=O)c2ncn(Cc3cccc(Cl)c3Cl)n2)CCn2nc(C(F)(F)F)cc21 [Example 534] has a pKi of 8.12. With CC(O)c1cc2n(n1)CC[C@H](NC(=O)c1ncn(Cc3ccccc3)n1)C(=O)N2C (single isomer, unassigned) [Example 368] the pKi was 6.81. Cc1cccnc1Cn1cnc(C(=O)N[C@H]2CCn3nccc3N(C)C2=O)n1 [Example 647, 1-[(3-methyl-2-pyridyl)methyl]-N-(6S)-4-methyl-5-oxo-7,8-dihydro-6H-pyrazolo[1,5-a][1,3]diazepin-6-yl-1,2,4-triazole-3-carboxamide] was tested, and the pKi was 6.80. CN1C(=O)[C@@H](NC(=O)c2nc3n(n2)CCNC3c2ccccc2)COc2ccccc21 (stereo partly drawn) [Example 452, N—((S)-5-methyl-4-oxo-2,3,4,5-tetrahydrobenzo[b][1,4]oxazepin-3-yl)-8-phenyl-5,6,7,8-tetrahydro-[1,2,4]triazolo[1,5-a]pyrazine-2-carboxamide] was tested, and the pKi was 6.69.
